The record followed here is US20260317319A1, “NOVEL ERGOLINES AND METHODS OF TREATING MOOD DISORDERS” (Gilgamesh Pharma Inc., priority 2023, published 2026).

Read-outs that look alike come from different tables or passages of the source. Bounds are passed on as bounds.

Series [1] in a line: in vitro. The series is classed as in vitro ADME, rat. To be noted: RLM (male Sprague-Dawley) 0.50 mg/mL, NADPH 1 mM, 1 μM compound, pH 7.4, 37° C., 60 min; for microsomal CLint / half-life: rat, microsomes; for microsomal CLint: read-out: Intrinsic clearance (Clint); for half-life: read-out: half-life (t1/2). From the text:
RLM Stability Pooled RLM from male Sprague-Dawley rats (Xenotech R1000) were used.

Series [2] deals with T1, 5-HT2B receptor (Homo sapiens, UniProt P41595).
T1 construct: expressed in transfected cells; host or cells: HEK293, stably transfected
Briefly: cell-based. The series is classed as cell-based. As to conditions: Ca2+ flux; for Emax: HEK293, agonist, HEK293, max dose, read-out: 5-HT2B % Act @ Max Dose; for EC50: agonist, HEK293. The method, boiled down: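 FLIPR Tetra fluorescence read-out of calcium flux after compound addition. Receptor-expressing stable lines were used (HEK293 for 2A/2B; CHO with Gα15 for 1A), dye-loaded with Fluo-4 Direct and 2.5 mM final probenecid, 50 min at 37 °C.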

The nature of series [3]: in vitro. The series is classed as in vitro ADME, human. To be noted: HLM 0.50 mg/mL, NADPH 1 mM, 1 μM compound, pH 7.4, 37° C., 60 min; for microsomal CLint / half-life: human, microsomes; for microsomal CLint: read-out: Intrinsic clearance (Clint); for half-life: read-out: half-life (t1/2).
In series [4] the target is T2, 5-HT1A receptor (Homo sapiens, UniProt P08908).
T2 construct: expressed in transfected cells; host or cells: CHO cells, stably transfected
T2 sequence (P08908 1-422): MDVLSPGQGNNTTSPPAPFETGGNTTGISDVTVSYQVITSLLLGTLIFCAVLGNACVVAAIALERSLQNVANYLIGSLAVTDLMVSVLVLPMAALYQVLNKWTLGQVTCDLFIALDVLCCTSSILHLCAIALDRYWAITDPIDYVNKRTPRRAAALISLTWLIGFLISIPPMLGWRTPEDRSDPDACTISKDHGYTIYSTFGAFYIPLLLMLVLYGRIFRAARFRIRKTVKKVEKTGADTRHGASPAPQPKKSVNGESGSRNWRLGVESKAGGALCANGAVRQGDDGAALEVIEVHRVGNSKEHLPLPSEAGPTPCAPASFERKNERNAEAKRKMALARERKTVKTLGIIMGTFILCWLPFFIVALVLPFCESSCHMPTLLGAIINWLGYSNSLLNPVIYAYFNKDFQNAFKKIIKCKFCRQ
In words: cell-based. As to conditions: agonist, Ca2+ flux; for Emax: CHO, CHO cells with Gα15, max dose, read-out: 5-HT1A % Act @ Max Dose; for EC50: CHO cells with Gα15. The method, boiled down: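 Receptor agonism was assessed as intracellular calcium mobilization in stably transfected cells, with CHO cells additionally carrying Gα15 for the 5-HT1A readout. Calcium was monitored with Fluo-4 Direct dye.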

Series [5] is described as follows: in vitro. The series is classed as in vitro ADME, mouse. To be noted: MLM (male CD-1) 0.50 mg/mL, NADPH 1 mM, 1 μM compound, pH 7.4, 37° C., 60 min; for microsomal CLint / half-life: mouse, microsomes; for microsomal CLint: read-out: Intrinsic clearance (Clint); for half-life: read-out: half-life (t1/2). The source says: MLM Stability Pooled MLM from male CD-1 mice (BIOIVT M00501) were used.

Series [6] has as its target T3, 5-HT1B receptor (Homo sapiens, UniProt P28222).
T3 construct: expressed in transfected cells
Briefly: cAMP accumulation functional assay at 5-HT1B. It counts as cell-based. As to conditions: agonist, cAMP accumulation, max dose; read-out: 5-HT1B % Act @ Max Dose. The method, boiled down:
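Stably transfected human 5-HT1B cells were incubated 60 min at room temperature, after which detection reagent was applied for another 60 min at RT. The read-out was cAMP accumulation, used as a measure of agonist activity.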
(Changes in cAMP serve as a functional read-out for many G protein-coupled receptors.)

Series [7] concerns the target T4, 5-HT2A receptor (Homo sapiens, UniProt P28223). Briefly: cell-based. The series is classed as cell-based. Further details: expressed in transfected cells; host or cells: HEK293, stably transfected. To be noted: Ca2+ flux; for Emax: HEK293, agonist, HEK293, max dose, read-out: 5-HT2A % Act @ Max Dose; for EC50: agonist, HEK293. The method, boiled down:
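Agonism measured as calcium flux on FLIPR Tetra. Receptor lines: HEK293 for 5-HT2A and 5-HT2B, CHO with Gα15 for 5-HT1A; dye loading with Fluo-4 Direct and probenecid (2.5 mM final) ran 50 min at 37 °C before compound addition and signal reading.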

For series [8], the target named is T5, Alpha1A adrenergic receptor (Homo sapiens, UniProt P35348).
T5 construct: expressed in transfected cells
T5 sequence (P35348 1-466): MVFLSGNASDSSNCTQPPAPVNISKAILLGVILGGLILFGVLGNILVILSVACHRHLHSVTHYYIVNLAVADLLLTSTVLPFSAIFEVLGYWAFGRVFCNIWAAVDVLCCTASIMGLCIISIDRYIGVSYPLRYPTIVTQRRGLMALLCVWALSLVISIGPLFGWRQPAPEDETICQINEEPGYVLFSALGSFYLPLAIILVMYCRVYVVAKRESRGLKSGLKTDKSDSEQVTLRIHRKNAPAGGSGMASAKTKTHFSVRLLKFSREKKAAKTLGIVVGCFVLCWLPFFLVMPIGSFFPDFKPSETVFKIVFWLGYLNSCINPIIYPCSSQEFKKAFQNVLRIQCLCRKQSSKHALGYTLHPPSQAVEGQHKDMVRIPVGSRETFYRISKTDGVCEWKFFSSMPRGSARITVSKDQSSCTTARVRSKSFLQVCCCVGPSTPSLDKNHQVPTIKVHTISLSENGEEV
Briefly: Ca2+ flux functional assay at Alpha1A. It counts as cell-based. As to conditions: agonist, Ca2+ flux, max dose; read-out: Alpha 1A % Act @ Max Dose. As to the method:
Disclosed compounds were tested for agonist activity at several adrenergic (Alpha1A and Alpha2A) and dopamine (D1 and D2) receptor subtypes using Ca^2+ flux functional assays, with the results summarized in Table 6. Selectivity for the 5-HT2A receptor over these other targets varied depending on the specific target and compound.
Functional Assays at Adrenergic and Dopamine Receptors. Agonist activity at Alpha1A, Alpha2A, D1, and D2 receptors was determined using a FLIPR Ca^2+ flux assay at WuXi AppTec (Hong Kong) Limited according to their standard protocols. Briefly, stably transfected cells expressing the receptor of interest were grown and plated in a 384 well plate and incubated at 37° C. and 5% CO2 overnight. A solution of 250 mM probenecid in 1 mL FLIPR assay buffer was prepared fresh. This was combined with a fluorescent dye (Fluo-4 Direct™) to make a final assay concentration of 2.5 mM. Compounds were diluted 1:3.16 for 10 points and 750 nL was added to a 384 well compound plate using ECHO along with 30 μL assay buffer. The fluorescent dye was then added to the assay plate along with assay buffer to a final volume of 40 μL. The cell plate was incubated for 50 min at 37° C. and 5% CO2 and placed into the FLIPR Tetra along with the compound plate. 10 μL of references and compounds were then transferred from the compound plate into the cell plate and the fluorescent signal was read.
Background: A change in cytosolic calcium serves as a functional read-out for many receptors and channels.

The target in series [9] is T6, 5-HT2C receptor (Homo sapiens, UniProt P28335).
T6 sequence (P28335 33-458): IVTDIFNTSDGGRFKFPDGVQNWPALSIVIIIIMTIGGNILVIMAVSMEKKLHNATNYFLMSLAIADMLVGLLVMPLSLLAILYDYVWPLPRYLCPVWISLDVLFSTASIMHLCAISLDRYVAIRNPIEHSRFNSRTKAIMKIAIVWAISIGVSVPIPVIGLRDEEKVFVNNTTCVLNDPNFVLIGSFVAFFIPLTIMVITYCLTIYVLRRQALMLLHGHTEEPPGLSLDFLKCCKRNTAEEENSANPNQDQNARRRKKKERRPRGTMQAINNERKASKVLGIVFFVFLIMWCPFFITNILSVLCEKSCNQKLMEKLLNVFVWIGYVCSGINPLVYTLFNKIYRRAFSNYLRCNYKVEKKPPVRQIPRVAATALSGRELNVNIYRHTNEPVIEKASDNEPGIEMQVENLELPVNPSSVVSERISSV
Briefly: Ca2+ flux functional assay at 5-HT2C (WuXi 5-HT2C protocol). The series is classed as cell-based. Also on record: expressed in transfected cells. As to conditions: for Emax: agonist, tested using WuXi 5-HT2C protocol, max dose, read-out: 5-HT2C % Act @ Max Dose (* WuXi protocol). The gist of the method: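 Agonist mode FLIPR Ca2+ flux in stably transfected cells loaded with Fluo-4 Direct dye and 2.5 mM probenecid (final), 50 min at 37 °C. Compounds tested as 10-point 1:3.16 dilutions; fluorescence read after addition.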

Series [10] concerns the target T1, 5-HT2B receptor. Briefly: 5-HT2B receptor radioligand binding ([3H]LSD). To be noted: read-out: 5-HT2B Receptor Ki.
The target of series [11] is T4, 5-HT2A receptor. In words: biochemical. It counts as binding. Also on record: expressed in transfected cells; host or cells: HEK293, stably transfected. As to conditions: [3H]ketanserin 1 nM; HEK293 stable cell line; 1 h, 25 °C. The method, boiled down: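 Test compounds competed with [^3H]ketanserin for receptor binding, and affinity was derived from the radioligand displacement.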

T4 sequence (P28223 whole entry): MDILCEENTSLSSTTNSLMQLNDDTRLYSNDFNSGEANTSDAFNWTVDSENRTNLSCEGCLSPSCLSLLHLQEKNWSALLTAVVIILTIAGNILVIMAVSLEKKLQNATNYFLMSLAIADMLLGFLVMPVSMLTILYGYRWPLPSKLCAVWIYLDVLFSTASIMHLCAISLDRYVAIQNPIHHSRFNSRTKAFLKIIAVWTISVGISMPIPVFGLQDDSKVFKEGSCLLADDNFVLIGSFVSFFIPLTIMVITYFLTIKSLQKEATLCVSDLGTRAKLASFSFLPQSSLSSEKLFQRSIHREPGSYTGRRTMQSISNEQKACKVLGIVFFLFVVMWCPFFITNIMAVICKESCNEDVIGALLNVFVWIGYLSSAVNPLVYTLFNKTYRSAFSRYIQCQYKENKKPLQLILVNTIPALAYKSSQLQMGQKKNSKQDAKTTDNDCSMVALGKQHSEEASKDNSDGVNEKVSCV
T1 sequence (P41595 whole entry): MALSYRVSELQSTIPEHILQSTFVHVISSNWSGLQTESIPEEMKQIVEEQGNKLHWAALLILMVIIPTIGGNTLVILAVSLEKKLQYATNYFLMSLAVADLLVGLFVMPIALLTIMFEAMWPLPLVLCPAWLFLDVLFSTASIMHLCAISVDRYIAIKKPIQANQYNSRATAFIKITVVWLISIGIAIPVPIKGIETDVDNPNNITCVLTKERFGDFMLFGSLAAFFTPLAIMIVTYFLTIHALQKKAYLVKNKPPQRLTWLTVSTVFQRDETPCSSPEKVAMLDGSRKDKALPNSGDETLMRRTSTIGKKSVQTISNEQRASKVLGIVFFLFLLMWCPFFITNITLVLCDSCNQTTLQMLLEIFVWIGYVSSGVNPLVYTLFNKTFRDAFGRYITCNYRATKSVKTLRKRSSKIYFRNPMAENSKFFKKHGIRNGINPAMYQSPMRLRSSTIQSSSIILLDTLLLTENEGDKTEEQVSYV
T3 sequence (P28222 whole entry): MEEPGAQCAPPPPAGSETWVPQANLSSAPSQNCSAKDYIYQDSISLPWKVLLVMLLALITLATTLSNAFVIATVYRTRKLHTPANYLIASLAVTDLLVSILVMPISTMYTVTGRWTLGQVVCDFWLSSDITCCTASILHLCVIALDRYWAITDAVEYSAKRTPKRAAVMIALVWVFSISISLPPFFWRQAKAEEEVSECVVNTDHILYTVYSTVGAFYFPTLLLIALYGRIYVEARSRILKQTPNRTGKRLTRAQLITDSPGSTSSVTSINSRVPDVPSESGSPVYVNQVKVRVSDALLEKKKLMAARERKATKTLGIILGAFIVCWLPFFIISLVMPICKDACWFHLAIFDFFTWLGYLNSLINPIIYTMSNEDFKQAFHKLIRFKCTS

As for `CCN(CC)C(=O)[C@@H]1C=C2c3cccc4[nH]cc(c34)C[C@H]2N(CC2CC2)C1` [Compound 13, (6aR,9R)—N,N-diethyl-7-(cyclopropylmethyl)-4,6,6a,7,8,9-hexahydroindolo[4,3-fg]quinoline-9-carboxamide], the “half-life (t1/2)” value was 27.7 min in [1], 21.1 min in [3] and 3.7 min in series [5]. Further, the Emax in series [2] was 91.8%; in [4], 83.1%; in series [6] it was 90.4%; in series [7] it was 92.6%; in series [8], 80.8%.

By EC50 is commonly meant the midpoint of the concentration-response curve. Read a high EC50 as a less potent agent. The Ki is the equilibrium dissociation constant of an inhibitor or competing ligand from its target. On to `CCN(C)C(=O)[C@@H]1C=C2c3cccc4[nH]cc(c34)C[C@H]2N(Cc2cccc(OC)c2)C1` [Compound 92, (6aR,9R)—N-ethyl-7-(3-methoxybenzyl)-N-methyl-4,6,6a,7,8,9-hexahydroindolo[4,3-fg]quinoline-9-carboxamide], for which the EC50 in [9] is above 10000 nM; in series [2], above 10000 nM; in series [4], above 100000 nM; in series [7], 793 nM. Besides, the Emax in series [9] came to 12.5%; in series [2], 0.48%; in [4] it was 21.6%; in series [7] it was 53.8%. Besides, the microsomal CLint came out at 278 µL/min/mg in series [1], 140 µL/min/mg in series [3] and 321 µL/min/mg in series [5]. The half-life worked out at 5 min in series [1], 9.9 min in series [3] and 4.3 min in series [5]. The Ki in [10] amounted to 1950 nM; in series [11] it was 11.1 nM.

On to `CCN(CC)C(=O)[C@@H]1C=C2c3cccc4[nH]cc(c34)C[C@H]2N(CCC(F)(F)F)C1` [Compound 12, (6aR,9R)—N,N-diethyl-7-(3,3,3-trifluoropropyl)-4,6,6a,7,8,9-hexahydroindolo[4,3-fg]quinoline-9-carboxamide], for which the “half-life (t1/2)” value is 5.9 min in series [1], 13.5 min in [3] and 2.1 min in series [5]. The Emax was 29.6% in series [2]; 71.4% in series [4]; 95.5% in series [6]; 78.7% in series [7]; 2.08% in series [8].

In the case of `CCN(C)C(=O)[C@@H]1C=C2c3cccc4[nH]cc(c34)C[C@H]2N(CC2CCCC2)C1` [Compound 103, (6aR,9R)-7-(cyclopentylmethyl)-N-ethyl-N-methyl-4,6,6a,7,8,9-hexahydroindolo[4,3-fg]quinoline-9-carboxamide], the EC50 was above 10000 nM in series [9], above 10000 nM in [2], 84400 nM in [4] and 422 nM in series [7]. The Emax in series [9] was found to be 21.7%; in series [2] it was 5.54%; in [4], 122%; in series [7], 80.1%. Also, the microsomal CLint in [1] is 185 µL/min/mg; in series [3], 121 µL/min/mg; in [5] it was 277 µL/min/mg. Also, the half-life was determined as 7.5 min in [1], 11.4 min in series [3] and 5 min in [5]. The Ki in series [10] is 11.7 nM; in [11], 1.6 nM.
